“And” between values parts separate entries of the source, which are not always exact repeats. Equal values may be shown once. Read-outs that look alike come from different tables or passages of the source.
Tests used:
[1] = format: cell-based
[2] = for % MNPCE (Mean ± S.D.) / % PCE (Mean ± S.D.): 24 hours after dosing
Experimental: Genotoxicity studies for PP2S were performed according to the ICH (International conference on harmonization) harmonized tripartite guideline, S2(R1). Regarding previous reports, the bacterial reverse mutation test, chromosomal abnormality test, and mouse bone marrow micronucleus test were performed with slight modifications.

[3] = format: in vivo, female rats; parameters: unit not given here; details: for Plasma concentration, individual animals: female rats 1-6, single oral 100 mg/kg, 100 mg/kg; for Plasma concentration, Average: female rats, average of 6 animals
[4] = TA100, 4.88 μg/plate, absence of S9 mix
[5] = TA100, 4.88 μg/plate, presence of S9 mix
[6] = TA100, 78.1 μg/plate, absence of S9 mix
[7] = TA100, 78.1 μg/plate, presence of S9 mix
[8] = TA100, 313 μg/plate, absence of S9 mix
[9] = TA100, 313 μg/plate, presence of S9 mix
[10] = TA1535, 4.88 μg/plate, absence of S9 mix
[11] = TA1535, 4.88 μg/plate, presence of S9 mix
[12] = TA1535, 78.1 μg/plate, absence of S9 mix
[13] = TA1535, 78.1 μg/plate, presence of S9 mix
[14] = TA1535, 313 μg/plate, absence of S9 mix
[15] = TA1535, 313 μg/plate, presence of S9 mix
[16] = TA1537, 4.88 μg/plate, absence of S9 mix
[17] = TA1537, 4.88 μg/plate, presence of S9 mix
[18] = TA1537, 78.1 μg/plate, absence of S9 mix
[19] = TA1537, 78.1 μg/plate, presence of S9 mix
[20] = TA1537, 313 μg/plate, absence of S9 mix
[21] = TA1537, 313 μg/plate, presence of S9 mix
[22] = WP2uvrA (pKM101), 4.88 μg/plate, absence of S9 mix
[23] = WP2uvrA (pKM101), 4.88 μg/plate, presence of S9 mix
[24] = WP2uvrA (pKM101), 78.1 μg/plate, absence of S9 mix
[25] = WP2uvrA (pKM101), 78.1 μg/plate, presence of S9 mix
[26] = WP2uvrA (pKM101), 313 μg/plate, absence of S9 mix

For `CCCCOc1ccc2cc(CN3C(=O)CC[C@H]3C(=O)OC)c3cc(OC)c(OC)cc3c2c1` [PP2S, Methyl (S)-1-((3-butoxy-6,7-dimethoxyphenanthren-9-yl)methyl)-5-oxopyrrolidine-2-carboxylate], the “Individual revertant colony counts” value [1, 4] was 77 colonies per plate and 71 colonies per plate, the Mean revertant colonies [1, 4] was 74 colonies per plate and the “Individual revertant colony counts” value [1, 5] was 116 colonies per plate and 111 colonies per plate. The Mean revertant colonies [1, 5] was 114 colonies per plate, the “Individual revertant colony counts” value [1, 6] was 78 colonies per plate and 85 colonies per plate and the Mean revertant colonies [1, 6] was 82 colonies per plate. For the same compound, the “Individual revertant colony counts” value [1, 7] was 111 colonies per plate and 107 colonies per plate, the Mean revertant colonies [1, 7] was 109 colonies per plate and the “Individual revertant colony counts” value [1, 8] was 98 colonies per plate and 95 colonies per plate. For the same compound, the Mean revertant colonies [1, 8] was 97 colonies per plate, the “Individual revertant colony counts” value [1, 9] was 111 colonies per plate and 107 colonies per plate and the Mean revertant colonies [1, 9] was 109 colonies per plate. For the same compound, the “Individual revertant colony counts” value [1, 10] was 18 colonies per plate and 19 colonies per plate, the Mean revertant colonies [1, 10] was 19 colonies per plate and the “Individual revertant colony counts” value [1, 11] was 10 colonies per plate and 12 colonies per plate. The Mean revertant colonies [1, 11] was 11 colonies per plate, the “Individual revertant colony counts” value [1, 12] was 18 colonies per plate and 19 colonies per plate and the Mean revertant colonies [1, 12] was 19 colonies per plate. The “Individual revertant colony counts” value [1, 13] was 17 colonies per plate and 15 colonies per plate, the Mean revertant colonies [1, 13] was 16 colonies per plate and the “Individual revertant colony counts” value [1, 14] was 15 colonies per plate and 17 colonies per plate. For the same compound, the Mean revertant colonies [1, 14] was 16 colonies per plate, the “Individual revertant colony counts” value [1, 15] was 16 colonies per plate and 15 colonies per plate and the Mean revertant colonies [1, 15] was 16 colonies per plate. For the same compound, the “Individual revertant colony counts” value [1, 16] was 10 colonies per plate and 11 colonies per plate, the Mean revertant colonies [1, 16] was 11 colonies per plate and the “Individual revertant colony counts” value [1, 17] was 16 colonies per plate and 14 colonies per plate. The Mean revertant colonies [1, 17] was 15 colonies per plate, the “Individual revertant colony counts” value [1, 18] was 11 colonies per plate and 10 colonies per plate and the Mean revertant colonies [1, 18] was 11 colonies per plate. The “Individual revertant colony counts” value [1, 19] was 18 colonies per plate and 17 colonies per plate, the Mean revertant colonies [1, 19] was 18 colonies per plate and the “Individual revertant colony counts” value [1, 20] was 9 colonies per plate and 8 colonies per plate. For the same compound, the Mean revertant colonies [1, 20] was 9 colonies per plate, the “Individual revertant colony counts” value [1, 21] was 18 colonies per plate and 19 colonies per plate and the Mean revertant colonies [1, 21] was 19 colonies per plate. The “Individual revertant colony counts” value [1, 22] was 92 colonies per plate and 86 colonies per plate, the Mean revertant colonies [1, 22] was 89 colonies per plate and the “Individual revertant colony counts” value [1, 23] was 149 colonies per plate and 156 colonies per plate. For the same compound, the Mean revertant colonies [1, 23] was 153 colonies per plate, the “Individual revertant colony counts” value [1, 24] was 87 colonies per plate and 94 colonies per plate and the Mean revertant colonies [1, 24] was 91 colonies per plate. For the same compound, the “Individual revertant colony counts” value [1, 25] was 156 colonies per plate and 167 colonies per plate, the Mean revertant colonies [1, 25] was 162 colonies per plate and the “Individual revertant colony counts” value [1, 26] was 91 colonies per plate and 93 colonies per plate. The Mean revertant colonies [1, 26] was 92 colonies per plate, the “Individual revertant colony counts” value ([1]; WP2uvrA (pKM101), 313 μg/plate, presence of S9 mix) was 162 colonies per plate and 165 colonies per plate and the genotoxicity ([1]; bacterial reverse mutation test) was “did not show genotoxicity”. The “Mean body weights ± S.D.” value ([2]; 500 mg/kg P.O., 0 day) was 35.9 ± 1.16 g, the “Mean body weights ± S.D.” value ([2]; 500 mg/kg P.O., 1 day) was 35.5 ± 1.48 g and the “% MNPCE (Mean ± S.D.)” value ([2]; 500 mg/kg P.O.) was 0.055 ± 0.037%. The “% PCE (Mean ± S.D.)” value ([2]; 500 mg/kg P.O.) was 30.5 ± 2.16%, the “Mean body weights ± S.D.” value ([2]; 1000 mg/kg P.O., 0 day) was 35.9 ± 1.07 g and the “Mean body weights ± S.D.” value ([2]; 1000 mg/kg P.O., 1 day) was 36.1 ± 1.42 g. For the same compound, the “% MNPCE (Mean ± S.D.)” value ([2]; 1000 mg/kg P.O.) was 0.060 ± 0.034%, the “% PCE (Mean ± S.D.)” value ([2]; 1000 mg/kg P.O.) was 31.8 ± 2.49% and the “Mean body weights ± S.D.” value ([2]; 2000 mg/kg P.O., 0 day) was 35.9 ± 1.14 g. For the same compound, the “Mean body weights ± S.D.” value ([2]; 2000 mg/kg P.O., 1 day) was 34.9 ± 1.63 g, the “% MNPCE (Mean ± S.D.)” value ([2]; 2000 mg/kg P.O.) was 0.055 ± 0.021% and the “% PCE (Mean ± S.D.)” value ([2]; 2000 mg/kg P.O.) was 33.6 ± 1.67%. For the same compound, the “RPD (relative population doubling)” value ([2]; S9 mix +, Trt-Rec 6-18 hr, 125 µg/mL) was 69.4%, the “RPD (relative population doubling)” value ([2]; S9 mix +, Trt-Rec 6-18 hr, 250 µg/mL) was 67.4% and the “RPD (relative population doubling)” value ([2]; S9 mix -, Trt-Rec 6-18 hr, 125 µg/mL) was 78.8%. For the same compound, the “RPD (relative population doubling)” value ([2]; S9 mix -, Trt-Rec 6-18 hr, 250 µg/mL) was 74.3%, the “RPD (relative population doubling)” value ([2]; S9 mix -, Trt-Rec 24-0 hr, 125 µg/mL) was 46.9% and the “RPD (relative population doubling)” value ([2]; S9 mix -, Trt-Rec 24-0 hr, 250 µg/mL) was 38.6%. The genotoxicity ([2]; bone marrow micronucleus formation test) was “did not show genotoxicity”, the “Plasma concentration, individual animals” value ([3]; 2 h) was 237.59 and the “Plasma concentration, individual animals” value ([3]; 4 h) was 316.47. The “Plasma concentration, individual animals” value ([3]; 6 h) was 323.47, the “Plasma concentration, individual animals” value ([3]; 8 h) was 253.32 and the “Plasma concentration, individual animals” value ([3]; 10 h) was 217.50. For the same compound, the “Plasma concentration, individual animals” value ([3]; 12 h) was 210.07, the “Plasma concentration, individual animals” value ([3]; 14 h) was 174.31 and the “Plasma concentration, individual animals” value ([3]; 16 h) was 211.29. The “Plasma concentration, individual animals” value ([3]; 18 h) was 122.20, the “Plasma concentration, individual animals” value ([3]; 20 h) was 116.07 and the “Plasma concentration, individual animals” value ([3]; 22 h) was 87.81. For the same compound, the “Plasma concentration, individual animals” value ([3]; 24 h) was 63.19, the “Plasma concentration, Average” value ([3]; single oral 100 mg/kg, 2 h) was 320.00 and the “Plasma concentration, Average” value ([3]; single oral 100 mg/kg, 4 h) was 432.00. For the same compound, the “Plasma concentration, Average” value ([3]; single oral 100 mg/kg, 6 h) was 276.00, the “Plasma concentration, Average” value ([3]; single oral 100 mg/kg, 8 h) was 154.00 and the “Plasma concentration, Average” value ([3]; single oral 100 mg/kg, 10 h) was 132.00. For the same compound, the “Plasma concentration, Average” value ([3]; single oral 100 mg/kg, 12 h) was 110.00, the “Plasma concentration, Average” value ([3]; single oral 100 mg/kg, 14 h) was 97.00 and the “Plasma concentration, Average” value ([3]; single oral 100 mg/kg, 16 h) was 81.00. The “Plasma concentration, Average” value ([3]; single oral 100 mg/kg, 18 h) was 78.00, the “Plasma concentration, Average” value ([3]; single oral 100 mg/kg, 20 h) was 67.00 and the “Plasma concentration, Average” value ([3]; single oral 100 mg/kg, 22 h) was 52.00. The “Plasma concentration, Average” value ([3]; single oral 100 mg/kg, 24 h) was 35.00, the “Plasma concentration, Average” value ([3]; single oral 150 mg/kg, 18 h) was 85.00 and the “Plasma concentration, Average” value ([3]; single oral 150 mg/kg, 20 h) was 76.00. For the same compound, the “Plasma concentration, Average” value ([3]; single oral 150 mg/kg, 22 h) was 63.00 and the “Plasma concentration, Average” value ([3]; single oral 150 mg/kg, 24 h) was 42.00.
